Assay: mn = molality of the nth substance listed, in mol/kg
Details: 101.3 kPa, Liquid; for speed of sound: Pulse-echo method

[Br][Co][Br] [cobalt(II) bromide] + CC#N
Details	mass density, 288.15 K [kg/m3]	mass density, 293.15 K [kg/m3]	mass density, 298.15 K [kg/m3]	mass density, 303.15 K [kg/m3]	mass density, 308.15 K [kg/m3]	mass density, 313.15 K [kg/m3]	mass density, 323.15 K [kg/m3]	speed of sound, 298.15 K [m/s]
m1 = 0.06384	797.529	792.118	786.677	781.218	775.72	770.192	759.026	–
m1 = 0.08092	800.3	794.88	789.432	783.966	778.458	772.92	761.738	–
m1 = 0.09698	802.926	797.495	792.044	786.563	781.049	775.5	764.302	1277
m1 = 0.1125	805.465	800.033	794.565	789.08	783.57	778.02	766.801	–
m1 = 0.1286	808.142	802.7	797.232	791.742	786.222	780.656	769.421	1276
m1 = 0.1428	810.505	805.061	799.583	794.089	788.55	782.985	771.734	–
m1 = 0.1587	813.161	807.703	802.224	796.713	791.168	785.595	774.335	1275.3
m1 = 0.19	818.466	812.988	807.489	801.964	796.411	790.822	779.533	1274.6
m1 = 0.2204	823.615	818.13	812.623	807.083	801.513	795.917	784.593	1273.9
m1 = 0.2527	829.214	823.715	818.194	812.642	807.057	801.45	790.088	–
m1 = 0.2636	831.14	825.637	820.113	814.557	808.967	803.34	791.988	1273.2
m1 = 0.2777	833.591	828.085	822.557	816.995	811.404	805.778	794.405	–
m1 = 0.3089	839.134	833.612	828.072	822.494	816.889	811.253	799.854	1272.1

[Br-].[Br-].[Mn+2] [manganese(II) bromide] + CC#N
Details	mass density, 288.15 K [kg/m3]	mass density, 293.15 K [kg/m3]	mass density, 298.15 K [kg/m3]	mass density, 303.15 K [kg/m3]	mass density, 308.15 K [kg/m3]	mass density, 313.15 K [kg/m3]	mass density, 323.15 K [kg/m3]	speed of sound, 298.15 K [m/s]
m1 = 0.0415	793.652	788.26	782.85	777.408	771.942	766.441	755.33	–
m1 = 0.0513	795.156	789.764	784.353	778.907	773.433	767.926	756.805	–
m1 = 0.06115	796.676	791.28	785.862	780.415	774.941	769.432	758.311	1277.2
m1 = 0.07131	798.243	792.85	787.428	781.978	776.494	770.984	759.855	–
m1 = 0.08138	799.819	794.414	788.989	783.537	778.054	772.539	761.403	1276.9
m1 = 0.09054	801.238	795.84	790.408	784.953	779.461	773.94	762.804	–
m1 = 0.1006	802.824	797.413	791.982	786.518	781.03	775.513	764.368	1276.7
m1 = 0.1214	806.091	800.671	795.23	789.765	784.269	778.744	767.585	–
m1 = 0.1406	809.125	803.696	798.249	792.776	787.272	781.741	770.567	1276.1
m1 = 0.1603	812.287	806.853	801.398	795.916	790.407	784.868	773.687	–
m1 = 0.1712	814.024	808.58	803.121	797.634	792.128	786.584	775.396	1275.7
m1 = 0.1804	815.501	810.054	804.59	799.11	793.589	788.041	776.847	–
m1 = 0.1995	818.585	813.117	807.642	802.149	796.622	791.065	779.856	1275.3

[Br-].[Br-].[Zn+2] [zinc bromide] + CC#N
Details	mass density, 288.15 K [kg/m3]	mass density, 293.15 K [kg/m3]	mass density, 298.15 K [kg/m3]	mass density, 303.15 K [kg/m3]	mass density, 308.15 K [kg/m3]	mass density, 313.15 K [kg/m3]	mass density, 323.15 K [kg/m3]	speed of sound, 298.15 K [m/s]
m1 = 0.02964	–	–	–	–	–	–	–	1277.1
m1 = 0.03209	792.171	786.781	781.365	775.922	770.453	764.95	753.836	–
m1 = 0.0404	793.435	788.04	782.622	777.179	771.701	766.197	755.075	–
m1 = 0.04717	794.467	789.072	783.65	778.202	772.724	767.215	756.09	1276.4
m1 = 0.05609	795.839	790.436	785.044	779.559	774.08	768.567	757.437	–
m1 = 0.06324	796.938	791.534	786.108	780.651	775.17	769.655	758.516	1275.7
m1 = 0.07124	798.167	792.766	787.332	781.876	776.393	770.874	759.73	–
m1 = 0.07952	799.446	794.033	788.597	783.143	777.651	772.126	760.98	1275.1
m1 = 0.09524	801.876	796.466	791.02	785.546	780.047	774.52	763.359	–
m1 = 0.1099	804.162	798.743	793.295	787.86	782.357	776.822	765.649	1273.6
m1 = 0.1252	806.567	801.138	795.677	790.202	784.687	779.149	767.969	–
m1 = 0.1317	807.593	802.157	796.698	791.221	785.702	780.162	768.971	1272.5
m1 = 0.1402	808.922	803.487	798.026	792.539	787.024	781.476	770.273	–
m1 = 0.1554	–	–	–	–	–	–	–	1271.2

Source: the NIST ThermoML archive (doi:10.1021/je7001946)
